# Reference: patent US9447083B2, “N-acylhydrazone derivatives for selective T cell inhibitor and anti-lymphoid malignancy drug” (CHONG KUN DANG PHARMACEUTICAL CORP., priority 2012, dated 2016)
# Experiments:
# [1] = system: alloantigen-specific T cells; test: Inhibitory effect on alloantigen-specific T cells in vivo (donor T cells in spleen of irradiated BDF1 mice); parameters: species or system mouse; settings: for number of alloantigen-specific T cells in the spleen: compared to vehicle, concentration-dependent
# Method: Lymph nodes and spleens were aseptically collected from normal C57BL/6-Ly5.1 mice (8-12 week old, female, 20±2 g), and T cells were isolated in the same manner as described in Experimental Example 2, and were then re-suspended in PBS at a concentration of 1×10^8 cells/mL. Normal BDF1 mice (10-12 week old, female, 20-23 g) were irradiated with 950 rad of γ radiation, and then 100 μL of the above-prepared T cells of C57BL/6-Ly5.1 mice were injected into the tail vein of the BDF1 mice. Compound 229 was completely dissolved in a Cremophor EL (Sigma)/ethanol mixture (1:1, v/v) in an amount corresponding to 15% (v/v) of the administration volume for intraperitoneal administration and in an amount corresponding to 7.5% (v/v) for oral administration, and the compound solution was diluted in PBS. The dilution was administered intraperitoneally (200 μL/mouse) or orally (500 μL/mouse) every day for 5 days from the day of the cell injection. A vehicle control group was administered with a Cremophor EL-ethanol-PBS mixture in the same ratio and volume as those of the test group. At 6 days after the cell injection, the mice were sacrificed, the spleens were collected from the mice, and erythrocyte-free spleen cells were made in the same manner as described in Experimental Example 2. The spleen cells were stained with trypan blue, and the number of viable cells per organ of each animal was counted. Then, the spleen cells were put into 5 mL FACS tubes and washed with 1 mL of FACS buffer. The cells were re-suspended in 0.1 mL of FACS buffer, and then treated with […] of mouse immunoglobulin G in order to prevent the non-specific binding of antibody, followed by incubation at 4° C. for 15 minutes. […] The stained cells were washed twice with 1 mL of FACS buffer, re-suspended in 0.3 mL of FACS buffer and analyzed by a flow cytometer. The number of donor T cells in the spleen was determined by measuring the ratio (%) of a donor T cell fraction (Ly5.1^+ cells) relative to viable cells per spleen.
# Jurkat = test: Apoptosis of lymphoid malignancy cell lines (Annexin V / 7-AAD): Jurkat; type: cell-based; settings: Homo sapiens, Acute T cell leukemia, 24 hours, read-out: Administration Dose (mean ± SD, μmol/L) Lethal Dose 50 (Apoptosis)
# Method: (§1) Each of the acute T cell leukemia cell lines Jurkat, Molt4 and CCRF-CEM, the acute B cell leukemia cell line Raji and the […] cell lines KMS11, KMS12BM, KMS26, KMS28BM, and IM9 was re-suspended in 10% FBS-containing RPMI medium at a concentration of 1.5×10^5 cells/mL, and 200 μL of each of the cell suspensions was cultured in a flat bottom 96-well plate (Costar). The acute NK cell lymphoma cell line NK-92MI was re-suspended in α-MEM medium (supplemented with 20% FBS, 1×MEM vitamine solution, 50 μM 2-mercaptoethanol and 1× penicillin/streptomycin) at a concentration of 1.5×10^5 cells/mL, and 200 μL of the cell suspension was cultured in a flat bottom 96-well plate. The cells in each well was treated with 10 μL of each of 0.1, 0.25, 0.5, 0.75 and 1 μM of the compound diluted with RPMI medium, followed by that the cells were incubated in a 5% CO2 incubator at 37° C. for 24 hours. In a vehicle control group, cells were treated with 10 μL of medium containing 0.05% dimetylsulfoxide (DMSO, Sigma).
# (§2) The cells were collected, and then the apoptosis thereof was analyzed by a flow cytometer after staining with Annexin V-7-AAD. The incubated cells were collected, placed in a 5-mL FACS tube (BD Falcon) and washed with 1 mL of fluorescence activated cell sorting (FACS) buffer (1%. FBS and 0.1% sodium azaide in PBS). The cells were re-suspended in 0.1 mL of FACS buffer, followed by that the cells were treated and stained with phycoerythrin-Annexin V at room temperature for 10 minutes. After 10 minutes of staining, the cells were treated and stained with 7-AAD at room temperature for 5 minutes. The stained cells were suspended in 0.3 mL of FACS buffer, and then analyzed by a flow cytometer. […] Thus, compounds 065, 108, 229 and 457 of the present invention can be used as a novel anti-lymphoid malignancy drug.
# Molt4 = test: Apoptosis of lymphoid malignancy cell lines: Molt4; type: cell-based; settings: Homo sapiens, MOLT-4, 24 h, read-out: Administration Dose (mean ± SD, μmol/L) Lethal Dose 50 (Apoptosis)
# Method: as §1, §2
# IM9 = test: Apoptosis of lymphoid malignancy cell lines: IM9; type: cell-based; settings: Homo sapiens, IM-9, 24 h, read-out: Administration Dose (mean ± SD, μmol/L) Lethal Dose 50 (Apoptosis)
# Method: as §1, §2
# KMS12BM = test: Apoptosis of lymphoid malignancy cell lines: KMS12BM; type: cell-based; settings: Homo sapiens, KMS-12-BM, Multiple myeloma, 24 hours, read-out: Administration Dose (mean ± SD, μmol/L) Lethal Dose 50 (Apoptosis)
# Method: as §1, with “In a vehicle control group, cells were treated with 10 μL of medium containing 0.05% dimetylsulfoxide (DMSO, Sigma).” left out
# (§3) The cells were collected, and then the apoptosis thereof was analyzed by a flow cytometer after staining with Annexin V-7-AAD. The incubated cells were collected, placed in a 5-mL FACS tube (BD Falcon) and washed with 1 mL of fluorescence activated cell sorting (FACS) buffer (1%. FBS and 0.1% sodium azaide in PBS). […] The stained cells were suspended in 0.3 mL of FACS buffer, and then analyzed by a flow cytometer. […]
# KMS20 = test: Apoptosis of lymphoid malignancy cell lines: KMS20; type: cell-based; settings: KMS-20; KMS20, Multiple myeloma, 24 hours; read-out: Administration Dose (mean ± SD, μmol/L) Lethal Dose 50 (Apoptosis)
# KMS26 = test: Apoptosis of lymphoid malignancy cell lines: KMS26; type: cell-based; settings: KMS-26; KMS26, Multiple myeloma, 24 hours; read-out: Administration Dose (mean ± SD, μmol/L) Lethal Dose 50 (Apoptosis)
# Method: as §1, with “In a vehicle control group, cells were treated with 10 μL of medium containing 0.05% dimetylsulfoxide (DMSO, Sigma).” left out
# as §3
# KMS28BM = test: Apoptosis of lymphoid malignancy cell lines: KMS28BM; type: cell-based; settings: KMS-28BM, Multiple myeloma, 24 hours, read-out: Administration Dose (mean ± SD, μmol/L) Lethal Dose 50 (Apoptosis)
# Method: as §1, with “In a vehicle control group, cells were treated with 10 μL of medium containing 0.05% dimetylsulfoxide (DMSO, Sigma).” left out
# as §3
# [2] = Toxicity test, single oral dose in ICR male mice; settings: mouse, in vivo, read-out: lethal dose 50 (LD50)
# Method: To ICR male mice, a suspension of Compound 229 in 0.5% methylcellulose solution was administered orally once by each doses of 10 mg/kg, 50 mg/kg and 100 mg/kg, and the survival rate and body weight of the mice were investigated for 7 days. After such administration, mouse death or not, clinical condition and body weight change were monitored. Hematology test and biochemical examination of blood were carried out.
smiles,measurement,setting,value
"Cc1cc(C)c(OCC(=O)N/N=C/c2ccc3cc[nH]c3c2)c(C2CCOC2)c1 (centres unmarked) [Compound 229, (E)-N′-((1H-indol-6-yl)methylene)-2-(2,4-dimethyl-6-(tetrahydrofuran-3-yl)phenoxy)acetohydrazide]",number of alloantigen-specific T cells in the spleen,[1]; administered intraperitoneally every day for 5 days,significantly decreased
same,number of alloantigen-specific T cells in the spleen,[1]; administered orally every day for 5 days,significantly decreased
same,proliferation of T cells that responded to the alloantigen in vivo,[1]; dose of 50 mg/kg,completely inhibited
same,EC50,Jurkat,0.62 µmol/L
same,EC50,Molt4,1.3 ± 0.05 µmol/L
same,EC50,IM9,0.9 ± 0.03 µmol/L
same,EC50,KMS12BM,0.94 ± 0.09 µmol/L
same,EC50,KMS20,0.74 ± 0.05 µmol/L
same,EC50,KMS26,1.31 ± 0.35 µmol/L
same,EC50,KMS28BM,0.49 ± 0.08 µmol/L
same,LD50 at 7 days,[2],100 mg/kg
